In patent US4600772A, “Cephalosporin antibiotics” (Glaxo Group Limited, priority 1978, dated 1986):

Assays:
[1] = test system: wide range of commonly encountered pathogenic organisms; assay: Broad spectrum / general antibiotic activity; format: cell-based
[2] = in vivo
[3] = Effect of increased inocula; format: cell-based
[4] = in vivo; remark: listed apart in the source
Pseudomonas aeruginosa = assay: Experimental infections in mice with Pseudomonas aeruginosa; format: in vivo
[5] = test system: strains of Pseudomonas organisms; assay: Antibacterial activity against strains of Pseudomonas organisms; format: cell-based; settings: e.g. strains of Pseudomonas aeruginosa
Bactericidal action = format: cell-based; settings: at concentrations close to the minimum inhibitory concentration
Nephrotoxicity in rats = format: in vivo; settings: dosages of 2.0 g/kg
[6] = Distribution in small rodents after subcutaneous injection
[7] = Effect of human serum on antibacterial properties; format: cell-based
gram-negative bacteria = assay: Experimental infections in mice with gram-negative bacteria; format: in vivo
[8] = Acute toxicity tests in mice; settings: mouse, in vivo

| Compound | properties compared with the compound of formula (Ib) [1] | distribution in the body [2] | effect of increased inocula [3] | serum levels [4] | protection against strains of Pseudomonas aeruginosa (Pseudomonas aeruginosa) | protection compared with an aminoglycoside such as amikacin (Pseudomonas aeruginosa; versus amikacin) | activity against strains of Pseudomonas organisms [5] | antibiotic activity / general antibiotic properties [1] | bactericidal action (Bactericidal action) | nephrotoxicity (Nephrotoxicity in rats) | therapeutic levels [6] | impairment of antibacterial properties by human serum [7] | treatment of experimental infections in mice with gram-negative bacteria (gram-negative bacteria) | LD50 [8] |
| --- | --- | --- | --- | --- | --- | --- | --- | --- | --- | --- | --- | --- | --- | --- |
| Nc1nc(/C(=N/OC2(C(=O)O)CCC2)C(=O)N[C@@H]2C(=O)N3C(C(=O)[O-])=C(C[n+]4ccccc4)CS[C@H]23)cs1 [(6R,7R)-7-[(Z)-2-(2-aminothiazol-4-yl)-2-(1-carboxycyclobut-1-oxyimino)acetamido]-3-(1-pyridiniummethyl)-ceph-3-em-4-carboxylate] | not dissimilar properties | – | – | – | – | – | – | – | – | – | – | – | – | – |
| CC(C)(O/N=C(\C(=O)N[C@@H]1C(=O)N2C(C(=O)[O-])=C(C[n+]3ccccc3)CS[C@H]12)c1csc(N)n1)C(=O)O [compound of formula (Ib), (6R,7R)-7-[(Z)-2-(2-aminothiazol-4-yl)-2-(2-carboxyprop-2-oxyimino)acetamido]-3-(1-pyridiniummethyl)-ceph-3-em-4-carboxylate] | – | well distributed | low | high and long lasting serum levels | excellent protection | comparable | excellent activity | possesses to an outstanding extent the general antibiotic properties | rapidly bactericidal | No nephrotoxicity was observed | useful therapeutic levels | not impaired by human serum | successfully treated | > 1000 mg/kg |
